Converted amounts (≈) assume the structure as drawn.
Tests used:
[1] = High-throughput (direct-to-biology) human liver microsomal stability assay; settings: for %Change After 60 min: %remaining after LSS minus before LSS at 60 min; for remaining at 0 h, 105 µM / remaining at 0.25 h, 105 µM / remaining at 0.5 h, 105 µM / remaining at 1 h, 105 µM / half-life at 105 µM: both, human, microsomes, pH 7.4
[2] = Measurement of LogPo/w (n-octanol/water, RP-HPLC); format: physicochemical; settings: n = 3; for logP at 24 h: measured n-octanol-water partition coefficient, 30 °C; for C(oil): n-octanol phase; for C(oil) / C(aqueous): n-octanol/water 1:1, 30 °C, 24 h; for C(aqueous): water phase
[3] = parameters: method as in PMID 23701517; settings: aqueous solubility, Figure 1B; cited from earlier work
[4] = parameters: method as in PMID 23701517; settings: Figure 1B; cited from earlier work
SARS-CoV M^pro = settings: Figure 1B; cited from earlier work
[5] = Metabolic stability in human liver microsomes (Pharmaron); settings: for CLint scaled at 1 µM / microsomal CLint at 1 µM / half-life at 1 µM: both, microsomes; for CLint scaled at 1 µM / microsomal CLint at 1 µM / half-life at 1 µM / Hepatic Extraction Ratio (ER) / Predicted Hepatic CLH: human; for Remaining Percentage 0.5 min / Remaining Percentage 5 min / Remaining Percentage 15 min / Remaining Percentage 30 min: human liver microsomes 0.5 mg/mL, +Cofactors (NADPH), 1 μM; for Predicted Hepatic CLH: QH 21 mL/min/kg, fub assumed 1
[6] = Traditional t1/2, human liver microsomes, Figure 6B
[7] = in vitro t1/2, human liver microsomes, Table S21

CCC1(c2ccccc2)C(=O)NCNC1=O [Primidone]
%Change After 60 min ([1]; human liver microsomes): 2.16%
remaining at 0 h, 105 µM [1]: 100%
remaining at 0.25 h, 105 µM [1]: 71%
remaining at 0.5 h, 105 µM [1]: 43.6%
remaining at 1 h, 105 µM [1]: 27.8%

CCCNC(C)C(=O)Nc1ccccc1C (stereo not drawn) [Prilocaine]
logP at 24 h [2]: 1.02
C(oil) [2]: 1.306 mg/mL
C(aqueous) [2]: 0.124 mg/mL
%Change After 60 min ([1]; human liver microsomes): -13.77%
remaining at 0 h, 105 µM [1]: 100%
remaining at 0.25 h, 105 µM [1]: 86%
remaining at 0.5 h, 105 µM [1]: 75%
remaining at 1 h, 105 µM [1]: 67.4%

CC(C(=O)O)c1ccc(C2CCCCC2)c(F)c1 (stereo not drawn) [compound 27]
logP at 24 h [2]: 1.54
C(oil) [2]: 2.453 mg/mL
C(aqueous) [2]: 0.071 mg/mL
microsomal stability upon saturation ([1]; human liver microsomes, saturated congener versus parent drug, in words): increase in stability

CC(C(=O)O)c1ccc(N2Cc3ccccc3C2=O)cc1 (stereo not drawn) [Indoprofen]
logP at 24 h [2]: 1.02
C(oil) [2]: 0.943 mg/mL
C(aqueous) [2]: 0.091 mg/mL
%Change After 60 min ([1]; human liver microsomes): -14.04%
remaining at 0 h, 105 µM [1]: 100%
remaining at 0.25 h, 105 µM [1]: 97.6%
remaining at 0.5 h, 105 µM [1]: 99%
remaining at 1 h, 105 µM [1]: 102%

CC(C(=O)O)c1ccc(-c2ccccc2)c(F)c1 (stereo not drawn) [Flurbiprofen]
logP at 24 h [2]: 1.14
C(oil) [2]: 1.858 mg/mL
C(aqueous) [2]: 0.135 mg/mL
%Change After 60 min ([1]; human liver microsomes): 7.13%
remaining at 0 h, 105 µM [1]: 100%
remaining at 0.25 h, 105 µM [1]: 50.1%
remaining at 0.5 h, 105 µM [1]: 25.1%
remaining at 1 h, 105 µM [1]: 9.28%

CN(Cc1ccc(C(C)(C)C)cc1)Cc1cccc2ccccc12 [Butenafine]
%Change After 60 min ([1]; human liver microsomes): -2.69%
remaining at 0 h, 105 µM [1]: 100%
remaining at 0.25 h, 105 µM [1]: 97.8%
remaining at 0.5 h, 105 µM [1]: 95.6%
remaining at 1 h, 105 µM [1]: 94.9%

COc1ccccc1N1CCN(CC(O)COc2cccc3ccccc23)CC1 (stereo not drawn) [Naftopidil]
logP at 24 h [2]: 2.04
C(oil) [2]: 1.697 mg/mL
C(aqueous) [2]: 0.016 mg/mL
%Change After 60 min ([1]; human liver microsomes): -25.63%
remaining at 0 h, 105 µM [1]: 100%
remaining at 0.25 h, 105 µM [1]: 72.2%
remaining at 0.5 h, 105 µM [1]: 58.9%
remaining at 1 h, 105 µM [1]: 47%

Nc1c2ccccc2nc2ccccc12 [Aminacrine]
%Change After 60 min ([1]; human liver microsomes): -12.39%
remaining at 0 h, 105 µM [1]: 100%
remaining at 0.25 h, 105 µM [1]: 83.7%
remaining at 0.5 h, 105 µM [1]: 75.1%
remaining at 1 h, 105 µM [1]: 66.2%

CC(C)NCC(O)COC1CCCC2CCCCC21 (stereo not drawn) [compound 23]
logP at 24 h [2]: 2.62
C(oil) [2]: 2.697 mg/mL
C(aqueous) [2]: 0.007 mg/mL

CCN(Cc1ccncc1)C(=O)C(CO)c1ccccc1 (stereo not drawn) [Tropicamide]
%Change After 60 min ([1]; human liver microsomes): -2.61%
remaining at 0 h, 105 µM [1]: 100%
remaining at 0.25 h, 105 µM [1]: 95.2%
remaining at 0.5 h, 105 µM [1]: 91.9%
remaining at 1 h, 105 µM [1]: 88.1%

CC1(C)OC(=O)N(c2ccc(C(=O)Nc3cccc4cccnc34)cc2)[C@H]1c1ccccc1 [compound 3]
Solubility [3]: 5 µg/mL (≈ 11.4 µM)
Plasma stability (t1/2) [4]: 312 min

COc1ccccc1N1CCN(CC(O)COc2cccc3c2CCCC3)CC1 (stereo not drawn) [compound 28]
logP at 24 h [2]: 2.1
C(oil) [2]: 1.761 mg/mL
C(aqueous) [2]: 0.014 mg/mL

O=C(C1CCCCC1)N1CC(=O)N2CCc3ccccc3C2C1 (stereo not drawn) [Praziquantel, praziquantel]
%Change After 60 min ([1]; human liver microsomes): -15.26%
remaining at 0.5 h, 105 µM [1]: 31.8%
remaining at 1 h, 105 µM [1]: 15.3%

CC(Cc1cccc(C(F)(F)F)c1)NCCOC(=O)c1ccccc1 (stereo not drawn) [Benfluorex]
remaining at 0 h, 105 µM [1]: 100%

CC1(C)OC(=O)N([C@H]2CC[C@H](C(=O)Nc3cccc4cccnc34)CC2)[C@H]1c1ccccc1 [compound 4]
Plasma stability (t1/2) [4]: > 500 min

O=C(/C=C/c1ccccc1)N[C@@H](CC1CCCCC1)C(=O)N[C@@H](C[C@@H]1CCNC1=O)C(=O)C(=O)NCc1ccccc1 [compound 2]
IC50 (SARS-CoV M^pro): 710 nM

CC(C)NCC(O)COc1cccc2ccccc12 (stereo not drawn) [Propranolol]
C(oil) [2]: 2.871 mg/mL
C(aqueous) [2]: 0.015 mg/mL

CCOC(=O)[C@H](C)C[C@@H](Cc1ccc(C2CCCCC2)cc1)NC(=O)CCC(=O)O [compound 70]
logP at 24 h [2]: 1.39
C(oil) [2]: 0.737 mg/mL
C(aqueous) [2]: 0.030 mg/mL

CCOC(=O)[C@H](C)C[C@@H](Cc1ccc(-c2ccccc2)cc1)NC(=O)CCC(=O)O [Sacubitril]
logP at 24 h [2]: 1.47
C(oil) [2]: 1.368 mg/mL
C(aqueous) [2]: 0.047 mg/mL
%Change After 60 min ([1]; human liver microsomes): -1.91%
remaining at 0 h, 105 µM [1]: 100%
remaining at 0.25 h, 105 µM [1]: 60.2%
remaining at 0.5 h, 105 µM [1]: 34%
remaining at 1 h, 105 µM [1]: 22.6%

CCCNC(C)C(=O)NC1CCCCC1C (stereo not drawn) [compound 15]
logP at 24 h [2]: 1.39
C(oil) [2]: 1.569 mg/mL
C(aqueous) [2]: 0.064 mg/mL

CC(C(=O)O)c1ccc(N2C[C@H]3CCCC[C@H]3C2=O)cc1 (stereo partly drawn) [compound 37]
logP at 24 h [2]: 0.813
C(oil) [2]: 0.897 mg/mL
C(aqueous) [2]: 0.138 mg/mL

CCN(CC)C(=O)c1cccc(C)c1 [Diethyltoluamide]
%Change After 60 min ([1]; human liver microsomes): 0.82%
remaining at 0 h, 105 µM [1]: 100%
remaining at 0.25 h, 105 µM [1]: 89%
remaining at 0.5 h, 105 µM [1]: 81.7%
remaining at 1 h, 105 µM [1]: 75.5%

COC(=O)N[C@H](C(=O)N[C@@H](Cc1ccccc1)[C@@H](O)CN(Cc1ccc(-c2ccccn2)cc1)NC(=O)[C@@H](NC(=O)OC)C(C)(C)C)C(C)(C)C [Atazanavir]
%Change After 60 min ([1]; human liver microsomes): -5.37%
remaining at 0 h, 105 µM [1]: 100%
remaining at 0.25 h, 105 µM [1]: 84.7%
remaining at 0.5 h, 105 µM [1]: 72.9%
remaining at 1 h, 105 µM [1]: 65.3%

COc1ccc2cc(CCC(C)=O)ccc2c1 [Nabumetone, nabumetone]
%Change After 60 min ([1]; human liver microsomes): 5.23%
remaining at 0 h, 105 µM [1]: 100%
remaining at 0.25 h, 105 µM [1]: 58%
remaining at 0.5 h, 105 µM [1]: 40.7%
remaining at 1 h, 105 µM [1]: 21.7%

C[C@@H](NCCCc1cccc(C(F)(F)F)c1)c1cccc2c1CCCC2 [compound 39]
logP at 24 h [2]: 4.79
C(oil) [2]: 9.541 mg/mL
C(aqueous) [2]: 0.0001 mg/mL
half-life at 105 µM [1]: 33.7 min
CLint scaled at 1 µM [5]: 68 mL/min/kg
microsomal CLint at 1 µM [5]: 66.2 µL/min/mg
half-life at 1 µM [5, 6]: 21 min
half-life at 1 µM [5, 7]: 21 min
Hepatic Extraction Ratio (ER) [5]: 0.76
Remaining Percentage 0.5 min [5]: 100.00%
Remaining Percentage 5 min [5]: 85.98%
Remaining Percentage 15 min [5]: 57.81%
Remaining Percentage 30 min [5]: 38.01%
Predicted Hepatic CLH [5]: 16.05 mL/min/kg

O=C(/C=C/c1ccccc1)N[C@@H](Cc1ccccc1)C(=O)N[C@@H](C[C@@H]1CCNC1=O)C(=O)C(=O)NCc1ccccc1 [compound 1]
IC50 (SARS-CoV M^pro): 1950 nM

C[C@@H](NCCCc1cccc(C(F)(F)F)c1)c1cccc2ccccc12 [Cinacalcet]
logP at 24 h [2]: 4.61
C(oil) [2]: 8.962 mg/mL
C(aqueous) [2]: 0.0002 mg/mL
%Change After 60 min ([1]; human liver microsomes): -1.7%
half-life at 105 µM [1]: 35.4 min
remaining at 0 h, 105 µM [1]: 100%
remaining at 0.25 h, 105 µM [1]: 67.4%
remaining at 0.5 h, 105 µM [1]: 49%
remaining at 1 h, 105 µM [1]: 35.4%
CLint scaled at 1 µM [5]: 67.4 mL/min/kg
microsomal CLint at 1 µM [5]: 65.6 µL/min/mg
half-life at 1 µM [5, 6]: 21.1 min
half-life at 1 µM [5, 7]: 21.1 min
Hepatic Extraction Ratio (ER) [5]: 0.76
Remaining Percentage 0.5 min [5]: 100.00%
Remaining Percentage 5 min [5]: 80.88%
Remaining Percentage 15 min [5]: 55.07%
Remaining Percentage 30 min [5]: 37.55%
Predicted Hepatic CLH [5]: 16.01 mL/min/kg
